Test results from the NIST ThermoML archive (doi:10.1021/je300673m).

Experiment: mn = molality of the nth substance listed, in mol/kg
Conditions: 101 kPa, Liquid

O=P([O-])([O-])O.[K+].[K+] [dipotassium hydrogen phosphate] + O
viscosity [mPa·s]
Conditions	288.15 K	298.15 K	308.15 K	318.15 K
m1 = 0.2	1.201	0.953	0.781	0.659
m1 = 0.4	1.329	1.057	0.867	0.73
m1 = 0.6	1.409	1.118	0.916	0.77
m1 = 0.8	1.534	1.217	0.997	0.833
